Measured values published in ChEMBL document CHEMBL1136649, “Synthesis and antibacterial study of 10, 15, 20-triphenyl-5-(4-hydroxy-3-(trimethylammonium)methyl)phenylporphyrin as models for combination of porphyrin and alkylating agent” (2003).
Converted amounts (≈) assume the structure as drawn.

Each molecule was assayed on Staphylococcus aureus (assay: Minimum inhibitory concentration required against Staphylococcus aureus ATCC 25923).
Type: functional
`CN(C)Cc1cc(-c2c3nc(c(-c4ccccc4)c4ccc([nH]4)c(-c4ccccc4)c4nc(c(-c5ccccc5)c5ccc2[nH]5)C=C4)C=C3)ccc1O` was tested, and the MIC was 120 µM (≈ 82.5 µg/mL). `C[N+](C)(C)Cc1cc(-c2c3nc(c(-c4ccccc4)c4ccc([nH]4)c(-c4ccccc4)c4nc(c(-c5ccccc5)c5ccc2[nH]5)C=C4)C=C3)ccc1O` gave an MIC of 60 µM. `COc1ccc(-c2c3nc(c(-c4ccccc4)c4ccc([nH]4)c(-c4ccccc4)c4nc(c(-c5ccccc5)c5ccc2[nH]5)C=C4)C=C3)cc1C[N+](C)(C)C` gave an MIC of 240 µM.
